Literature values in PMC8089043 (Journal of controlled release : official journal of the …, 2021).

Key:
[1] = rats, high doses
[2] = in vivo

| SMILES | dose exhibiting hepatic and renal toxicities [1] [mg/kg] | safety of diets containing gram quantities [2] |
| --- | --- | --- |
| CC(C)=CCC[C@]1(C)C=Cc2c(O)c3c(c(CC=C(C)C)c2O1)O[C@]12C(=C[C@@H]4C[C@H]1C(C)(C)O[C@@]2(C/C=C(/C)C(=O)O)C4=O)C3=O [GA, gambogic acid] | > 120 |  |
| O=c1oc2cc(O)ccc2c2ccc(O)cc12 [UA, urolithin A] |  | safe |
